System: skin (back) of subjects
Conditions: in vivo

induction phase patch reading: negative at each reading
Substance: petrolatum
challenge patch reading: dermal contact irritation or sensitization: negative at each reading without any evidence of dermal contact irritation or sensitization
